# Where two headings read alike, the source gives them in different places.
# Assays:
# [1] = Pharmacokinetic (brain penetration) study in rats; format: in vivo; conditions: Sprague-Dawley Crl:CD(SD), rat, male SD rats, 10 mg/kg ip, 1 h after a single administration
# Description: Brain penetration studies were conducted in non-fasted male SD rats [Sprague-Dawley rats Crl:CD(SD), 8 weeks of age]. Compound 1 was intraperitoneally (ip) administered at 10 mg/kg in a solution of saline containing 10% dimethylformamide, 10% propylene glycol, and 4% 1 normality (N) sodium hydrate. […] Blood and brain were collected at 1 h after a single administration. The test compound in plasma samples or brain samples was extracted by deproteination with acetonitrile, and then analysed using LC-MS/MS.
# [2] = biological target: T1, hKMO (Homo sapiens, UniProt O15229); assay: Surface plasmon resonance; format: binding; conditions: SPR, immobilised hKMO, single-cycle kinetics
# T1 construct: purchased Origene
# T1 sequence (O15229 whole entry): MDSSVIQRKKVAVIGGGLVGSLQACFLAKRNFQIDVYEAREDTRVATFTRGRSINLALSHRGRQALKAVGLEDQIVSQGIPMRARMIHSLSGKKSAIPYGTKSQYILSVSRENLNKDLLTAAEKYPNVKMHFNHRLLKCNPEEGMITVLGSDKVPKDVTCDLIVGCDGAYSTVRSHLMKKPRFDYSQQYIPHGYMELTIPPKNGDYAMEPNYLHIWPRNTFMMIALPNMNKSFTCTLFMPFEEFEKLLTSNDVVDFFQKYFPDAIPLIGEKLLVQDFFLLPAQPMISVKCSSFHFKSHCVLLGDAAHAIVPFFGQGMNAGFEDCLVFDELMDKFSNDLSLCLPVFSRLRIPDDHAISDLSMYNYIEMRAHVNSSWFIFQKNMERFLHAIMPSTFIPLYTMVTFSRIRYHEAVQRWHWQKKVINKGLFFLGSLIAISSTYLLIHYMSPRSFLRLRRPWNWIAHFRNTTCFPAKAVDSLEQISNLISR
# Description: Surface plasmon resonance experiments were performed using a Biacore 8K+ (GE Healthcare) instrument. A 20-μg/mL concentration of hKMO (Origene) was immobilised on a Series S Sensor Chip CM5 (GE Healthcare) by NHS/EDC amine coupling. The Rmax was 13,500 resonance units (RU) upon binding.
# Five-fold serial dilutions of 50 nM compound 3 finalised in 2% DMSO were made, and run in a buffer containing HBS-P+ (GE Healthcare), 1 mM DTT, and 2% DMSO using single-cycle kinetics.
# Surface plasmon resonance data were analysed using Biacore Insight Evaluation software. All fits used a simple 1:1 Langmuir binding model showing reasonable fit and low fit χ^2 values.
Kp at 1 h ([1]; brain/plasma),"concentration at 1 h ([1]; brain, read-out: Exposure in brain) [ng/g]","concentration at 1 h ([1]; plasma, read-out: Exposure in plasma) [ng/mL]",Kd [2] [nM],koff [2] [s⁻¹],kon [2] [M⁻¹ s⁻¹],Compound
0.029,25.4,869,,,,Cc1cnn(-c2cccc(C(=O)O)c2)c1-c1ccccc1 [Compound 1]
,,,0.039,2.1e-05,540000,Cc1cnn(-c2ccc(OCc3ccccc3)c(C(=O)O)c2)c1-c1ccc(Cl)c(F)c1 [Compound 3]

# From paper PMC7862291, “Full-length in meso structure and mechanism of rat kynurenine 3-monooxygenase inhibition” (Communications Biology, 2021)
